molecular target: T1, BTK (Homo sapiens, UniProt Q06187); assay: Cellular BTK HTRF assay (BTK degradation) in TMD8 cells; format: cell-based; conditions: four hours incubation, Total-BTK HTRF relative to DMSO-treated cells
T1 construct: endogenous in cells; host or cells: TMD8 cells
In short: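 TMD8 cells were treated with compounds (final DMSO <0.200) for four hours at 37° C, 5% CO2, then lysed for 30 minutes. Total BTK was measured by two-antibody HTRF, taking the 665/620 nm ratio with background subtracted and expressed relative to DMSO-treated cells. DC50 came from four-parameter nonlinear regression.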

T1 sequence (Q06187 whole entry): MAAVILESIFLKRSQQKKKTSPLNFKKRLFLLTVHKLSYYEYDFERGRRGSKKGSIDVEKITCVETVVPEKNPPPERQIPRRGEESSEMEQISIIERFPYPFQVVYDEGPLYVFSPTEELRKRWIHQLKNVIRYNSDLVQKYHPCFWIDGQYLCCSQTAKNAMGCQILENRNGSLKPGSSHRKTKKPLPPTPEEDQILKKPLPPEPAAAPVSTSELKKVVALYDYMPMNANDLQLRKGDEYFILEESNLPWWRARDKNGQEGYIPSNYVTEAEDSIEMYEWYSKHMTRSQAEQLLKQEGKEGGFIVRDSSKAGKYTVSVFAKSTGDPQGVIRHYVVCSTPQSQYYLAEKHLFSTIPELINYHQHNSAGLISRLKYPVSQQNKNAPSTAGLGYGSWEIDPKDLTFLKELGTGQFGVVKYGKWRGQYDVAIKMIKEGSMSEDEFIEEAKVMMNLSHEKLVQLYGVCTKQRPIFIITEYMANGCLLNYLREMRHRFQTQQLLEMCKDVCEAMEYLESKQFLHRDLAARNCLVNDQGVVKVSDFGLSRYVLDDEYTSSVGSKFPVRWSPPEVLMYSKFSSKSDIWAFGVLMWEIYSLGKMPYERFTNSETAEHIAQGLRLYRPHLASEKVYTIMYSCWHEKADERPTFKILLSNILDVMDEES

`NC(=O)c1ncc(N2CCC[C@H](N3CCCC3=O)C2)nc1Nc1ccc(C2CCN(CC3CCN(c4ccc5c(=O)n(C6CCC(=O)NC6=O)ccc5c4)CC3)CC2)cc1` (stereo partly shown) [Compound 144] and `NC(=O)c1ncc(N2CCC[C@@H](N3CCOC3=O)C2)nc1Nc1ccc(C2CCN(CC3CCN(c4ccc5c(=O)n(C6CCC(=O)NC6=O)ccc5c4)CC3)CC2)cc1` (stereo partly shown) [Compound 153] cannot be ordered by DC50: under 5 nM for the first, under 5 nM for the second.

`CN1CCN([C@@H]2CCCN(c3cnc(C(N)=O)c(Nc4ccc(C5CN(CC6CN(c7ccc8c(c7)C(=O)N(C7CCC(=O)NC7=O)C8=O)C6)C5)cc4)n3)C2)C1=O` (stereo partly shown) [Compound 85] and `CN1CCN([C@@H]2CCCN(c3cnc(C(N)=O)c(Nc4ccc(C5CN(C[C@H]6CCN(c7ccc8c(c7)C(=O)N(C7CCC(=O)NC7=O)C8=O)C6)C5)cc4)n3)C2)C1=O` (stereo partly shown) [Compound 35] cannot be ordered by DC50: under 5 nM for the first, under 5 nM for the second.

`CNC(C)C(=O)N[C@H](C(=O)N1C[C@@H](NC(=O)CCOCCOCCOCCOCCC(=O)N2CCC(c3ccc(Nc4nc(N5CCC[C@@H](N6CCN(C)C6=O)C5)cnc4C(N)=O)cc3)CC2)C[C@H]1C(=O)N[C@@H]1CCCc2ccccc21)C1CCCCC1` (stereo partly shown) [Compound 183] and `Cc1ncsc1-c1ccc([C@H](C)NC(=O)[C@@H]2C[C@@H](O)CN2C(=O)[C@@H](NC(=O)CCCCCCCC(=O)N2CCC(c3ccc(Nc4nc(N5CCC[C@@H](N6CCN(C)C6=O)C5)cnc4C(N)=O)cc3)CC2)C(C)(C)C)cc1` [Compound 188] cannot be ordered by DC50: over 15 nM for the first, over 15 nM for the second.

`CN1CCN([C@@H]2CCCN(c3cnc(C(N)=O)c(Nc4ccc(C5CCN(CCC6CCN(c7ccc8c(c7)C(=O)N(C7CCC(=O)NC7=O)C8=O)CC6)CC5)cc4)n3)C2)C1=O` (stereo partly shown) [Compound 41] and `CN1CCN([C@@H]2CCCN(c3cnc(C(N)=O)c(Nc4ccc(C5CCN(C[C@H]6CCCN(c7ccc8c(c7)C(=O)N(C7CCC(=O)NC7=O)C8=O)C6)CC5)cc4)n3)C2)C1=O` (stereo partly shown) [Compound 50] cannot be ordered by DC50: under 5 nM for the first, under 5 nM for the second.

Going from `NC(=O)c1ncc(-c2nccs2)nc1Nc1ccc(N2CCC3(CC2)CCN(c2ccc4c(c2)C(=O)N(C2CCC(=O)NC2=O)C4=O)CC3)cc1` (stereo not shown) [Compound 151] to `NC(=O)c1ncc(-c2nccs2)nc1Nc1ccc(C2CCN(C[C@@H]3CCN(c4ccc5c(c4)C(=O)N(C4CCC(=O)NC4=O)C5=O)C3)CC2)cc1` (stereo partly shown) [Compound 148], the DC50 falls from over 15 nM to under 5 nM.

`NC(=O)c1ncc(N2CCC(CO)CC2)nc1Nc1ccc(C2CCN(C[C@@H]3CCN(c4ccc5c(c4)C(=O)N(C4CCC(=O)NC4=O)C5=O)C3)CC2)cc1` (stereo partly shown) [Compound 160] and `NC(=O)c1ncc(N2CCC[C@@H](CO)C2)nc1Nc1ccc(C2CCN(C[C@@H]3CCN(c4ccc5c(c4)C(=O)N(C4CCC(=O)NC4=O)C5=O)C3)CC2)cc1` (stereo partly shown) [Compound 193] cannot be ordered by DC50: under 5 nM for the first, under 5 nM for the second.

`CN1CCN([C@@H]2CCCN(c3cnc(C(N)=O)c(Nc4ccc(N5CCN(C6CN(Cc7ccc8c(c7)C(=O)N(C7CCC(=O)NC7=O)C8=O)C6)CC5)cc4)n3)C2)C1=O` (stereo partly shown) [Compound 101] and `CN1CCN([C@@H]2CCCN(c3cnc(C(N)=O)c(Nc4ccc(N5CCC6(CC5)CN(Cc5ccc7c(c5)C(=O)N(C5CCC(=O)NC5=O)C7=O)C6)cc4)n3)C2)C1=O` (stereo partly shown) [Compound 93] cannot be ordered by DC50: under 5 nM for the first, under 5 nM for the second.

Compared with `NC(=O)c1ncc(N2CCOCC2)nc1Nc1ccc(C2CCN(C[C@H]3CCN(c4ccc5c(c4)C(=O)N(C4CCC(=O)NC4=O)C5=O)C3)CC2)cc1` (stereo partly shown) [Compound 161], `NC(=O)c1ncc(N2CCCCC2)nc1Nc1ccc(C2CCN(C[C@@H]3CCN(c4ccc5c(c4)C(=O)N(C4CCC(=O)NC4=O)C5=O)C3)CC2)cc1` (stereo partly shown) [Compound 149] is lower in DC50: 5 to 15 nM for the first, under 5 nM for the second.

First: CN1CCN([C@@H]2CCCN(c3cnc(C(N)=O)c(Nc4ccc(C(=O)NCCOCCOCCOCCCc5cccc6c5CN(C5CCC(=O)NC5=O)C6=O)cc4)n3)C2)C1=O (stereo partly shown) [Compound 2]
Second: CN1CCN([C@@H]2CCCN(c3cnc(C(N)=O)c(Nc4ccc(C5CCN(C(=O)CCCCc6cccc7c6CN(C6CCC(=O)NC6=O)C7=O)CC5)cc4)n3)C2)C1=O (stereo partly shown) [Compound 23]
The DC50 of the first is higher: over 15 nM for the first, 5 to 15 nM for the second.

`NC(=O)c1ncc(-n2cccn2)nc1Nc1ccc(C2CCN(C[C@H]3CCN(c4ccc5c(c4)C(=O)N(C4CCC(=O)NC4=O)C5=O)C3)CC2)cc1` (stereo partly shown) [Compound 125] and `NC(=O)c1ncc(N2CCC(F)(F)C(CO)C2)nc1Nc1ccc(C2CCN(C[C@H]3CCN(c4ccc5c(c4)C(=O)N(C4CCC(=O)NC4=O)C5=O)C3)CC2)cc1` (stereo partly shown) [Compound 175] cannot be ordered by DC50: under 5 nM for the first, under 5 nM for the second.

First: NC(=O)c1ncc(N2CCCCC2)nc1Nc1ccc(C2CCN(CC3CCN(c4ccc(CC5CCC(=O)NC5=O)cn4)CC3)CC2)cc1 (stereo not shown) [Compound 185]
Second: CN(c1ccc(N2CCC(CN3CCC(c4ccc(Nc5nc(N6CCCCC6)cnc5C(N)=O)cc4)CC3)CC2)nc1)C1CCC(=O)NC1=O (stereo not shown) [Compound 181]
The DC50 of the first is higher: over 15 nM for the first, 5 to 15 nM for the second.

`CN1CCN([C@@H]2CCCN(c3cnc(C(N)=O)c(Nc4ccc(C5CCN(CC6CCN(c7cnn(C8CCC(=O)NC8=O)c(=O)c7)CC6)CC5)cc4)n3)C2)C1=O` (stereo partly shown) [Compound 120] and `CN1CCN([C@H]2CCCN(c3cnc(C(N)=O)c(Nc4ccc(C5CCN(CC6CCN(c7ccc(NC8CCC(=O)NC8=O)cn7)CC6)CC5)cc4)n3)C2)C1=O` (stereo partly shown) [Compound 129] cannot be ordered by DC50: under 5 nM for the first, under 5 nM for the second.

`CN1CCN([C@@H]2CCCN(c3cnc(C(N)=O)c(Nc4ccc(C5CCN(CC6CN(c7ccc8c(=O)n(C9CCC(=O)NC9=O)ccc8c7)C6)CC5)cc4)n3)C2)C1=O` (stereo partly shown) [Compound 116] and `CN1CCN([C@@H]2CCCN(c3cnc(C(N)=O)c(Nc4ccc(C5CCN(C[C@H]6CCN(c7ccc8c(c7)CN(C7CCC(=O)NC7=O)C8=O)C6)CC5)cc4)n3)C2)C1=O` (stereo partly shown) [Compound 117] cannot be ordered by DC50: under 5 nM for the first, under 5 nM for the second.

`CN1CCN([C@H]2CCCN(c3cnc(C(N)=O)c(Nc4ccc(N5CCC6(CC5)CN(c5ccc7c(c5)C(=O)N(N5CCC(=O)NC5=O)C7=O)C6)cc4)n3)C2)C1=O` [Compound 112] and `CN1CCN([C@@H]2CCCN(c3cnc(C(N)=O)c(Nc4ccc(N5CCN(CCC6CCN(c7ccc8c(c7)C(=O)N(C7CCC(=O)NC7=O)C8=O)CC6)CC5)cc4)n3)C2)C1=O` (stereo partly shown) [Compound 40] cannot be ordered by DC50: under 5 nM for the first, under 5 nM for the second.

First: CN1CCN([C@@H]2CCCN(c3cnc(C(N)=O)c(Nc4ccc(C5CCN(C[C@H]6CC[C@H](Nc7cccc8c7C(=O)N(C7CCC(=O)NC7=O)C8=O)CC6)CC5)cc4)n3)C2)C1=O (stereo partly shown) [Compound 154]
Second: CN1CCN([C@@H]2CCCN(c3cnc(C(N)=O)c(Nc4ccc(C5CCN(C(=O)CNc6cccc7c6C(=O)N(C6CCC(=O)NC6=O)C7=O)CC5)cc4)n3)C2)C1=O (stereo partly shown) [Compound 184]
The DC50 of the first is lower: under 5 nM for the first, 5 to 15 nM for the second.

Compared with `CN1CCN([C@H]2CCCN(c3cnc(C(N)=O)c(Nc4ccc(N5CCN(CCCCc6cccc7c6CN(C6CCC(=O)NC6=O)C7=O)CC5)nc4)n3)C2)C1=O` (stereo partly shown) [Compound 110], `CN1CCN([C@H]2CCCN(c3cnc(C(N)=O)c(Nc4ccc(N5CCN(CCCCc6cccc7c6CN(C6CCC(=O)NC6=O)C7=O)CC5)cn4)n3)C2)C1=O` (stereo partly shown) [Compound 88] is higher in DC50: under 5 nM for the first, over 15 nM for the second.

First: CN1CCN([C@@H]2CCCN(c3cnc(C(N)=O)c(Nc4ccc(N5CCC6(CCN(CCCCc7cccc8c7CN(C7CCC(=O)NC7=O)C8=O)CC6)CC5)cc4)n3)C2)C1=O (stereo partly shown) [Compound 56]
Second: CN1CCN([C@@H]2CCCN(c3cnc(C(N)=O)c(Nc4ccc(C5(C)CCN(CCOCCCc6cccc7c6C(=O)N(C6CCC(=O)NC6=O)C7=O)CC5)cc4)n3)C2)C1=O (stereo partly shown) [Compound 18]
The DC50 of the first is lower: under 5 nM for the first, 5 to 15 nM for the second.

`NC(=O)c1ncc(N2CCC[C@@H](N3CCCC3=O)C2)nc1Nc1ccc(N2CC(C3CCN(c4ccc5c(c4)C(=O)N(C4CCC(=O)NC4=O)C5=O)CC3)C2)nc1` (stereo partly shown) [Compound 168] and `NC(=O)c1ncc(N2CCC[C@@H](N3CCCC3=O)C2)nc1Nc1ccc(N2CC(C3CCN(c4ccc5c(c4)C(=O)N(C4CCC(=O)NC4=O)C5=O)CC3)C2)cc1` (stereo partly shown) [Compound 169] cannot be ordered by DC50: under 5 nM for the first, under 5 nM for the second.

`Cn1c(-c2ccc(N3CC(CN4CCC(c5ccc(Nc6nc(N7CCC[C@H](N8CCCC8=O)C7)cnc6C(N)=O)cc5)CC4)C3)cc2)nn(C2CCC(=O)NC2=O)c1=O` (stereo partly shown) [Compound 135] and `CN1CCN([C@@H]2CCCN(c3cnc(C(N)=O)c(Nc4ccc(C5CCN(CC6CN(c7ccc8c(=O)n(C9CCC(=O)NC9=O)ccc8c7)C6)CC5)cc4)n3)C2)C1=O` (stereo partly shown) [Compound 138] cannot be ordered by DC50: under 5 nM for the first, under 5 nM for the second.

First: CN1CCN([C@@H]2CCCN(c3cnc(C(N)=O)c(Nc4ccc(N5CCN(C[C@H]6CCN(c7ccc8c(c7)C(=O)N(C7CCC(=O)NC7=O)C8=O)C6)CC5)cn4)n3)C2)C1=O (stereo partly shown) [Compound 89]
Second: CN1CCN([C@@H]2CCCN(c3cnc(C(N)=O)c(Nc4ccc(C5CCN(C[C@@H]6CCCN(c7ccc8c(c7)C(=O)N(C7CCC(=O)NC7=O)C8=O)C6)CC5)cc4)n3)C2)C1=O (stereo partly drawn) [Compound 32, 3-((4-(1-(((3S)-1-(2-(2,6-dioxopiperidin-3-yl)-1,3-dioxoisoindolin-5-yl)piperidin-3-yl)methyl)piperidin-4-yl)phenyl)amino)-5-((R)-3-(3-methyl-2-oxoimidazolidin-1-yl)piperidin-1-yl)pyrazine-2-carboxamide]
The DC50 of the first is higher: 5 to 15 nM for the first, under 5 nM for the second.

Going from `NC(=O)c1ncc(N2CCCCC2)nc1Nc1ccc(C2CCN(CC3CCN(c4ccc(NC5CCC(=O)NC5=O)cn4)CC3)CC2)cc1` (stereo not shown) [Compound 167] to `NC(=O)c1ncc(N2CCCCC2)nc1Nc1ccc(C2CCN(CC3CCN(c4ccc5c(=O)n(C6CCC(=O)NC6=O)ccc5c4)CC3)CC2)cc1` (stereo not shown) [Compound 133], the DC50 falls from over 15 nM to under 5 nM.

`Cn1cc(Nc2nc(N3CCC[C@@H](N4CC5(CN(CC6CCN(c7ccc8c(=O)n(C9CCC(=O)NC9=O)ccc8c7)CC6)C5)OC4=O)C3)cnc2C(N)=O)cn1` (stereo partly shown) [Compound 147] and `Cn1cc(Nc2nc(N3CCC[C@H](N4CC5(CN(CC6CCN(c7ccc(NC8CCC(=O)NC8=O)nc7)CC6)C5)OC4=O)C3)cnc2C(N)=O)cn1` (stereo partly shown) [Compound 132] cannot be ordered by DC50: under 5 nM for the first, under 5 nM for the second.

`CN1CCN([C@@H]2CCCN(c3cnc(C(N)=O)c(Nc4ccc(C5(C)CCN(C(=O)CCOCCCc6ccc7c(c6)C(=O)N(C6CCC(=O)NC6=O)C7=O)CC5)cc4)n3)C2)C1=O` (stereo partly shown) [Compound 10] and `CN1CCN([C@@H]2CCCN(c3cnc(C(N)=O)c(Nc4ccc(C5CCN(CC6CCN(c7ccc(CC8CCC(=O)NC8=O)cn7)CC6)CC5)cc4)n3)C2)C1=O` (stereo partly shown) [Compound 190] fall in the same range of DC50: 5 to 15 nM for the first, 5 to 15 nM for the second.
